Entries after “also recorded” stand apart in the source; their conditions may differ.
What was measured:
[1] = molecular target: T1, ITK (Homo sapiens, UniProt Q08881); assay: Jump dilution assay; type: binding; parameters: purchased Invitrogen
T1 sequence (Q08881 1-620): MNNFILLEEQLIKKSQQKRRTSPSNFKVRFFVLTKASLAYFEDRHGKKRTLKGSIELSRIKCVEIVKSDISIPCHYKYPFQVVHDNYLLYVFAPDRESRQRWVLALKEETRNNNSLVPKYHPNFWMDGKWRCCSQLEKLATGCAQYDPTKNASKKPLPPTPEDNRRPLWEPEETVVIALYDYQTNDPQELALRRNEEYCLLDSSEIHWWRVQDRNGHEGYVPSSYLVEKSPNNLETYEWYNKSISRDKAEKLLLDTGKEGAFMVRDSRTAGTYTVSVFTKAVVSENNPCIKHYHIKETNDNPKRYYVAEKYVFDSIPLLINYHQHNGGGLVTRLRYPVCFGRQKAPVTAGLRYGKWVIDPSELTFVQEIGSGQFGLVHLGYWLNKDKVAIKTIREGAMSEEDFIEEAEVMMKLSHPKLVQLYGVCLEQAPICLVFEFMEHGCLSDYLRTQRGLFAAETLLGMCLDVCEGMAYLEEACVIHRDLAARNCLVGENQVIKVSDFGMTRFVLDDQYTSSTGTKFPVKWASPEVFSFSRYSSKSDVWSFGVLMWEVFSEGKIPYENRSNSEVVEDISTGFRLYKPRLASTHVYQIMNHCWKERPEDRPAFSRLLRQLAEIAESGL
Method: The assay format is similar to the Competitive Tracer-binding Assay and relies on the reversible binding of tracer 236 to recombinant tagged human ITK. […] The mixture was then filtered through a desalting column (Thermo Scientific, Zeba Spin Desalting Column, 40K MWCO) to remove unbound inhibitor. The assay was initiated immediately after the desalting step by diluting the eluate containing the inhibited kinase complex 50-fold into a solution of anti-tag antibody (2 nM final) and excess tracer 236 (40 nM final). Dissociation of inhibitor and binding of tracer was monitored immediately after assay initiation using an EnVision plate reader (excitation 340 nm, dual emission at 665 nm and 615 nm). Reagents including GST-tagged recombinant human ITK, Kinase tracer 236, Lanthascreen Eu-Anti-GST antibody and kinase buffer A were purchased from ThermoFisher Scientific/Invitrogen. Each data point represents the mean of technical triplicates. Equation 3 was fitted to the BMS-509744 data to obtain the rate constant using GraphPad Prism from which the half-life was calculated.

[2] = test system: other TEC kinases; details: literature; cited from earlier work

Structure (SMILES) | reversibility of ITK inhibition on dilution ([1]; dilution into competitive probe) | half-life of inhibitor-ITK complex ([1]; dilution into excess tracer 236) | inhibition of other TEC kinases [2]
COc1cc(C)c(Sc2cnc(NC(=O)c3ccc(CNC(C)C(C)(C)C)cc3)s2)cc1C(=O)N1CCN(C(C)=O)CC1 (stereo not drawn) [BMS-509744, reference compound] | reversible; also recorded: rapid dissociation | 2.6 min | –
C=CC(=O)N1CCC[C@@H]1Cn1c(NC(=O)c2ccc(C(F)F)s2)nc2cc(CN[C@@H](C)C(C)(C)C)ccc21 [PRN694] | – | – | significant inhibition

Source: patent US20250213587A1, “ITK INHIBITORS FOR INCREASING TH1 CELL ACTIVITY” (Corvus Pharmaceuticals, Inc., priority 2022, published 2025)
